These results are taken from patent US4714711A, “6-hydroxy-2(2-hydroxy-4-methoxyphenyl)benzofuran derivatives to inhibit leukotriene biosynthesis” (Merck & Co., Inc., priority 1986, dated 1987).

For one experiment, the system named is leukotriene C4. Nature of the experiment: Inhibition of CXBG leukotriene production (A23187-stimulated, enzyme immunoassay). It counts as cell-based, mice. The following applies: Mus musculus; CXBG cells, 2×10^6 cells/ml, inhibitor 5 minutes at 37°, A23187 stimulation 10 minutes; read-out: IC50 (μg/ml) LTC4. The protocol: (§1) Representative compounds of Formula I have been tested using the following assay to determine their mammalian leukotriene biosynthesis inhibiting activity and other relevant activities:
(§2) CXBG cells grown intraperitoneally in CB4 B6 /F1 /J mice were washed 5 times in Dulbeccos phosphate buffered saline without calcium or magnesium, suspended in medium 199 (Gibco) at 2×10^6 cells/ml, and incubated 15 minutes at 37°. Inhibitor solutions in methanol were incubated with the cells (10μl/600 μl cells), for 5 minutes at 37°, and the cells were stimulated with 60 μl A23187 (50 μg/ml) for 10 minutes at 37°. Aliquots were removed for measurement of leukotriene C4 or thromboxane B2 by enzyme immunoassay as previously reported (D. K. Miller, et al., J. Immunological Methods, 81, 169-185, 1985). The percentage inhibition was calculated by the following: [formula]

In another experiment the test system is thromboxane B2. The experiment in a line: Inhibition of CXBG prostoglandin (thromboxane B2) production (A23187-stimulated, enzyme immunoassay). It counts as cell-based, mice. The following applies: Mus musculus; CXBG cells, 2×10^6 cells/ml, inhibitor 5 minutes at 37°, A23187 stimulation 10 minutes; read-out: IC50 (μg/ml) Tx B2. The procedure: as §1, §2

≈ marks a conversion by molar mass, not a printed value.

As for `COc1ccc(-c2cc3ccc(O)cc3o2)c(O)c1` [6-hydroxy-2-(hydroxy-4-methoxyphenyl)benzofuran], the IC50 with leukotriene C4 is 0.013 µg/mL (≈ 0.0507 µM); in the experiment with thromboxane B2, 0.3 µg/mL (≈ 1.17 µM).
Taken in the same sequence, the figures for `COc1ccc(-c2cc3cc(O)ccc3o2)c(O)c1` [5-hydroxy-2-(2-hydroxy-4-methoxyphenyl)benzofuran] were 0.75 µg/mL (≈ 2.93 µM) and 0.5 µg/mL (≈ 1.95 µM).
The like results for `COc1cc(O)ccc1-c1cc2ccc(O)cc2o1` [6-hydroxy-2-(2-methoxy-4-hydroxyphenyl)benzofuran] were, in that order, 0.028 µg/mL (≈ 0.109 µM) and 1 µg/mL (≈ 3.9 µM).
